What was measured:
[1] = Aerobic stability of inoculated high moisture corn silage (1999 HMC field trials, PVC silos)
Procedure: High moisture corn was harvested by combine at 22 to 28% moisture. Harvested grain was processed with a roller mill with rollers set at a gap width of approximately 3 mm.
Inoculants were formulated to deliver the appropriate rate as give in Table 2. A 30 cc syringe fitted with a 16-gauge needle was used to apply the inoculants to the forage at a rate of 1 ml/lb. The inoculants were mixed with the forage by rolling on clean plastic.
(§1) For each treatment two 4″×14″ PVC silos with air infusion holes near the top and bottom of the silo were filled with 2.5 kg of forage. Experimental silos were fitted with rubber quick caps at each end, the top having a bunsen valve to allow gas to escape. The silos were then kept in an environmentally controlled room until opening.
(§2) Two pre-ensiled forage samples were taken while filling during each trial for pH and microbial analysis. Lactic acid bacteria (LAB) were enumerated on modified DeMann-Rogosa-Sharpe (MRS) agar and yeasts and molds on Sabouraud Dextrose agar. Dry matter (DM) was determined by drying to a constant weight for 72 hours at 55° C. in a forced air oven. Inoculum was plated on modified MRS agar. Silos were opened after approximately 60 days, emptied and mixed. Samples were taken for pH, DM, digestibility, and aerobic stability analyses.
Aerobic stabilty was determined by placing 500 g of silage into a plastic tub with holes in the lid and bottom, placing a temperature probe in the center of the silage mass and placing the tub into a styrofoam cooler (Honig, Das Wirtschaftseigene Futter (1975) 21:25-32). The coolers were then kept in a temperature-controlled room where the ambient temperature and silage temperature were recorded by a datalogger every three hours for one week. DM was determined as per the pre-ensiled samples. Dried samples from the DM determination were ground through a 4 mm Wiley Mill screen and scanned by near infrared spectroscopy (NIRS).

[2] = Aerobic stability of inoculated whole plant corn silage (WPCS fall field trials, PVC silos)
Procedure: Whole plant corn forage was harvested at approximately 2/3 milk line with a 2-row pull type forage chopper. Theoretical chop length was […].
A 30 cc syringe fitted with a 16-gauge needle was used to apply the inoculants to the forage at a rate of 1 ml/lb. The inoculants were mixed with the forage by rolling on clean plastic.
as §1, with “filed” for “filled”, “1123 g, 1173 g, 1271 g, 1144 g, 1459 g, 1278 g, 1207 g and 1097 g” for “2.5 kg”, “then weighed for dry matter recovery. After filing, the silos were” for “then”, “opening and air infused for 24 hours on day 28.” for “opening.”
as §2, with “Three” for “Two”, “MRS” for “DeMann-Rogosa-Sharpe (MRS)”, “matter” for “matter (DM)”, “50 days” for “approximately 60 days,”, “DM” for “DM, digestibility,”
Aerobic stability was determined by placing 100 g of dry matter of silage into a plastic tub with holes in the lid and bottom, placing a temperature probe in the center of the silage mass and placing the tub into a styrofoam cooler (Honig, Das Wirtschaftseigene Futter (1975) 21:25-32). The coolers were then kept in a temperature-controlled room where the ambient temperature and silage temperature were recorded by a datalogger every three hours for one week. DM was determined as per the pre-ensiled samples. Frozen samples of selected samples were submitted for VFA analysis according to standard protocols.

improvement of aerobic stability [1]: 94 h | improvement of aerobic stability (in words) [1]: effective in all trials
Compound: CCC(=O)O [PROP, Propionic acid]
Loss ([1]; number of HMC field trials with 24 hour decrease in stability compared to control): 0 | Win ([1]; number of HMC field trials with 24 hour increase in stability compared to control): 8 | No Difference ([1]; number of HMC field trials with no difference from control): 0 | Loss ([2]; number of WPCS trials (of 8) with 24 hour decrease in stability compared to control): 2 | Win ([2]; number of WPCS trials (of 8) with 24 hour increase in stability compared to control): 3 | No Effect ([2]; number of WPCS trials (of 8) with no effect): 3
